Calls of active or inactive are those of the source.
Columns and labels:
[1] = reduction of Shn3 3'UTR-driven luciferase in osteoblasts – cell-based, Clone20 osteoblasts, firefly luciferase, cherry-picked, dose response (AID 624132); type: functional;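 further: firefly luciferase luminescence from reporter carrying the Shn3 3'UTR in osteoblasts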
[2] = target: SUMO-activating enzyme (Homo sapiens, UniProt Q9UBT2); assay: blockers of UBC9-mediated SUMO conjugation – biochemical, AlphaScreen, SUMOylation inhibitor project, confirmation (AID 2018); type: functional
[3] = target: T1, Caspase-3 (Homo sapiens, UniProt P42574); type: functional;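 further: Dose-response selectivity test against caspase-3 for candidate inhibitors of sentrin-specific proteases (SENPs)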
T1 sequence (P42574 whole entry): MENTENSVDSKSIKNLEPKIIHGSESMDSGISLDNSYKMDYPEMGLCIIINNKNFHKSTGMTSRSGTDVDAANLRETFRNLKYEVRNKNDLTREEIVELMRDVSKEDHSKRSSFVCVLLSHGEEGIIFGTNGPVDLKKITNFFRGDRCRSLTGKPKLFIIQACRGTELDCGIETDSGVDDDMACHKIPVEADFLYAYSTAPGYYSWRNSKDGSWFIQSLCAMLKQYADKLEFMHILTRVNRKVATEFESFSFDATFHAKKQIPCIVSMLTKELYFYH

[4] = target: T2, Serine/threonine-protein phosphatase (Homo sapiens, UniProt Q9BPW0); assay: inhibition of protein phosphatase 5 activity – biochemical, fluorescence, dose response (AID 2395)
T2 sequence (Q9BPW0 whole entry): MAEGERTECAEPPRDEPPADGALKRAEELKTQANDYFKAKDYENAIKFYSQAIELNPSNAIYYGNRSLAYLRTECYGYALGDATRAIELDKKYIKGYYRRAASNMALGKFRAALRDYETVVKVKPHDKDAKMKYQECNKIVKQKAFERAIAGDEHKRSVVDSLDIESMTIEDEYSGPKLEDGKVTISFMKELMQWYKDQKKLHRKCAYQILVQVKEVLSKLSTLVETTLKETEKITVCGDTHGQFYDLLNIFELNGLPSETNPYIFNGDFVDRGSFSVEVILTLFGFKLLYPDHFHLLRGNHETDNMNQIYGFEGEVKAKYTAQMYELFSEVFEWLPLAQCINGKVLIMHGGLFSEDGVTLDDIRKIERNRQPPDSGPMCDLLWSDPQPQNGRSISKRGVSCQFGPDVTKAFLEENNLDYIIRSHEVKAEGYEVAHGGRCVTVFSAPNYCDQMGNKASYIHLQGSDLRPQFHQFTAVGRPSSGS

[5] = SNU-C1 cell viability reduction, dose response, CellTiter-Glo luminescence (AID 1117323); type: functional, cell-based
[6] = target: Heat shock cognate 71 kDa protein (Homo sapiens, UniProt P11142); assay: small molecules displacing fluorescent ligand from Hsc70 – biochemical, fluorescence polarization, primary screen (AID 568)
[7] = target: Fatty acid synthase (Homo sapiens, UniProt P49327); assay: inhibition of human FAS-TE enzyme activity – biochemical, endpoint fluorescence intensity, uHTS hits, dose response (AID 624327); type: functional;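 further: fluorescence from hydrolysis of an O-methyl fluorescein acyl ester substrate by the enzyme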
[8] = target: Small ubiquitin-related modifier 2 (Homo sapiens, UniProt P61956); assay: SUMO2 binding disruption by SUMO1 hits – biochemical, FRET, human SUMO2, uHTS hits, selectivity assay for SUMO1 interaction inhibitor project, dose response (AID 624384); type: functional; conditions: read-out: IC50_Mean
[9] = target: T3, Apoptotic protease-activating factor 1 (Homo sapiens, UniProt O14727); type: functional
T3 sequence (O14727 whole entry): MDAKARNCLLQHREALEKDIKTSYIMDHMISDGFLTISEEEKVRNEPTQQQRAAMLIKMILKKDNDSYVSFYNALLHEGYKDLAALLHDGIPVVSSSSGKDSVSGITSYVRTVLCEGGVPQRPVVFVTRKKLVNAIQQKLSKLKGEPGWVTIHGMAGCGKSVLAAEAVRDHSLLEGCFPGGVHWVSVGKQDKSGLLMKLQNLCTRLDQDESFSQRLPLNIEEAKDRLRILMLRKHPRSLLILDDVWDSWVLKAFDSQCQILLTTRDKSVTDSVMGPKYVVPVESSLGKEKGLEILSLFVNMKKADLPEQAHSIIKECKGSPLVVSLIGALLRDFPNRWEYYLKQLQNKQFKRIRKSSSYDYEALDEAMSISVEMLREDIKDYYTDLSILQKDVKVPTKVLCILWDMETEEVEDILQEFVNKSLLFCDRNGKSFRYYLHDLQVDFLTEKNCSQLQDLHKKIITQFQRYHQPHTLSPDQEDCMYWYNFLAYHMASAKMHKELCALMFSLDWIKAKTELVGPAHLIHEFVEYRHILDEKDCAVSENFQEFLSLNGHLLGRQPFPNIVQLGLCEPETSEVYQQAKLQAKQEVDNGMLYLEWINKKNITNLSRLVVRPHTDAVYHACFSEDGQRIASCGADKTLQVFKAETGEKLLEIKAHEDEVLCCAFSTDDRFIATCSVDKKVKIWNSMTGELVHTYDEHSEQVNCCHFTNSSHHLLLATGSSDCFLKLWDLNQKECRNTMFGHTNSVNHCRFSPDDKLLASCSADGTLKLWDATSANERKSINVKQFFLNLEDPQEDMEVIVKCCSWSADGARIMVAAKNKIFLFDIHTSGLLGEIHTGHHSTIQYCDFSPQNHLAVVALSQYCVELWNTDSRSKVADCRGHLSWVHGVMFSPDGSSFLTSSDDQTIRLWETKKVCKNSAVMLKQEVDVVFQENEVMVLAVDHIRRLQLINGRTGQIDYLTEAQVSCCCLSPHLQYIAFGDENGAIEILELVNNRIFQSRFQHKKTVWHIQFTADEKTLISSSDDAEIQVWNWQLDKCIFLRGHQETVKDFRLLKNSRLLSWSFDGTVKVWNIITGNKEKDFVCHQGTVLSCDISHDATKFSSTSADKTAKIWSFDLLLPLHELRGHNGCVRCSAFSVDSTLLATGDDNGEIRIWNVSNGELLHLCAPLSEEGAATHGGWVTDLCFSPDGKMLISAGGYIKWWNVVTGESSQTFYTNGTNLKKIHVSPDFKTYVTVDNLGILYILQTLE

Small ubiquitin-related modifier 2, sequence (P61956 whole entry): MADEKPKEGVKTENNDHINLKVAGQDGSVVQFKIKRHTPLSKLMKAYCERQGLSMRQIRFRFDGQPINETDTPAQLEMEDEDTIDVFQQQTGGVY
Heat shock cognate 71 kDa protein, sequence (P11142 whole entry): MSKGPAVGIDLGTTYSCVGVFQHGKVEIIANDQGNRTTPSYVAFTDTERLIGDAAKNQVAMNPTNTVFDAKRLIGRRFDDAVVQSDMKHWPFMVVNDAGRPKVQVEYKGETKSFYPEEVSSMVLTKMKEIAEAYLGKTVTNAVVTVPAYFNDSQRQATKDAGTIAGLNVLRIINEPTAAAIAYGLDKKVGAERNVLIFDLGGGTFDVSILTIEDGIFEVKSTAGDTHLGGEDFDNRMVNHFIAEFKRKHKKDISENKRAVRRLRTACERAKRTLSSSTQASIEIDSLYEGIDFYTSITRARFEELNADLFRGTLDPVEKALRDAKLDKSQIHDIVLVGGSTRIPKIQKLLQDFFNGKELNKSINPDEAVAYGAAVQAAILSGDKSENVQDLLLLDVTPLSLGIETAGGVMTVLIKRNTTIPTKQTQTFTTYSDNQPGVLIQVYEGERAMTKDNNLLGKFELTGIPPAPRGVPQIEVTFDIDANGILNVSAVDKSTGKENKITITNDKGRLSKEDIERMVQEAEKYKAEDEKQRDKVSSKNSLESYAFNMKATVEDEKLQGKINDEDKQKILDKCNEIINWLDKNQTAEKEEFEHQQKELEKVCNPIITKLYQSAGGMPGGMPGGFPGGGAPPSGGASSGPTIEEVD
Fatty acid synthase, sequence (P49327 whole entry): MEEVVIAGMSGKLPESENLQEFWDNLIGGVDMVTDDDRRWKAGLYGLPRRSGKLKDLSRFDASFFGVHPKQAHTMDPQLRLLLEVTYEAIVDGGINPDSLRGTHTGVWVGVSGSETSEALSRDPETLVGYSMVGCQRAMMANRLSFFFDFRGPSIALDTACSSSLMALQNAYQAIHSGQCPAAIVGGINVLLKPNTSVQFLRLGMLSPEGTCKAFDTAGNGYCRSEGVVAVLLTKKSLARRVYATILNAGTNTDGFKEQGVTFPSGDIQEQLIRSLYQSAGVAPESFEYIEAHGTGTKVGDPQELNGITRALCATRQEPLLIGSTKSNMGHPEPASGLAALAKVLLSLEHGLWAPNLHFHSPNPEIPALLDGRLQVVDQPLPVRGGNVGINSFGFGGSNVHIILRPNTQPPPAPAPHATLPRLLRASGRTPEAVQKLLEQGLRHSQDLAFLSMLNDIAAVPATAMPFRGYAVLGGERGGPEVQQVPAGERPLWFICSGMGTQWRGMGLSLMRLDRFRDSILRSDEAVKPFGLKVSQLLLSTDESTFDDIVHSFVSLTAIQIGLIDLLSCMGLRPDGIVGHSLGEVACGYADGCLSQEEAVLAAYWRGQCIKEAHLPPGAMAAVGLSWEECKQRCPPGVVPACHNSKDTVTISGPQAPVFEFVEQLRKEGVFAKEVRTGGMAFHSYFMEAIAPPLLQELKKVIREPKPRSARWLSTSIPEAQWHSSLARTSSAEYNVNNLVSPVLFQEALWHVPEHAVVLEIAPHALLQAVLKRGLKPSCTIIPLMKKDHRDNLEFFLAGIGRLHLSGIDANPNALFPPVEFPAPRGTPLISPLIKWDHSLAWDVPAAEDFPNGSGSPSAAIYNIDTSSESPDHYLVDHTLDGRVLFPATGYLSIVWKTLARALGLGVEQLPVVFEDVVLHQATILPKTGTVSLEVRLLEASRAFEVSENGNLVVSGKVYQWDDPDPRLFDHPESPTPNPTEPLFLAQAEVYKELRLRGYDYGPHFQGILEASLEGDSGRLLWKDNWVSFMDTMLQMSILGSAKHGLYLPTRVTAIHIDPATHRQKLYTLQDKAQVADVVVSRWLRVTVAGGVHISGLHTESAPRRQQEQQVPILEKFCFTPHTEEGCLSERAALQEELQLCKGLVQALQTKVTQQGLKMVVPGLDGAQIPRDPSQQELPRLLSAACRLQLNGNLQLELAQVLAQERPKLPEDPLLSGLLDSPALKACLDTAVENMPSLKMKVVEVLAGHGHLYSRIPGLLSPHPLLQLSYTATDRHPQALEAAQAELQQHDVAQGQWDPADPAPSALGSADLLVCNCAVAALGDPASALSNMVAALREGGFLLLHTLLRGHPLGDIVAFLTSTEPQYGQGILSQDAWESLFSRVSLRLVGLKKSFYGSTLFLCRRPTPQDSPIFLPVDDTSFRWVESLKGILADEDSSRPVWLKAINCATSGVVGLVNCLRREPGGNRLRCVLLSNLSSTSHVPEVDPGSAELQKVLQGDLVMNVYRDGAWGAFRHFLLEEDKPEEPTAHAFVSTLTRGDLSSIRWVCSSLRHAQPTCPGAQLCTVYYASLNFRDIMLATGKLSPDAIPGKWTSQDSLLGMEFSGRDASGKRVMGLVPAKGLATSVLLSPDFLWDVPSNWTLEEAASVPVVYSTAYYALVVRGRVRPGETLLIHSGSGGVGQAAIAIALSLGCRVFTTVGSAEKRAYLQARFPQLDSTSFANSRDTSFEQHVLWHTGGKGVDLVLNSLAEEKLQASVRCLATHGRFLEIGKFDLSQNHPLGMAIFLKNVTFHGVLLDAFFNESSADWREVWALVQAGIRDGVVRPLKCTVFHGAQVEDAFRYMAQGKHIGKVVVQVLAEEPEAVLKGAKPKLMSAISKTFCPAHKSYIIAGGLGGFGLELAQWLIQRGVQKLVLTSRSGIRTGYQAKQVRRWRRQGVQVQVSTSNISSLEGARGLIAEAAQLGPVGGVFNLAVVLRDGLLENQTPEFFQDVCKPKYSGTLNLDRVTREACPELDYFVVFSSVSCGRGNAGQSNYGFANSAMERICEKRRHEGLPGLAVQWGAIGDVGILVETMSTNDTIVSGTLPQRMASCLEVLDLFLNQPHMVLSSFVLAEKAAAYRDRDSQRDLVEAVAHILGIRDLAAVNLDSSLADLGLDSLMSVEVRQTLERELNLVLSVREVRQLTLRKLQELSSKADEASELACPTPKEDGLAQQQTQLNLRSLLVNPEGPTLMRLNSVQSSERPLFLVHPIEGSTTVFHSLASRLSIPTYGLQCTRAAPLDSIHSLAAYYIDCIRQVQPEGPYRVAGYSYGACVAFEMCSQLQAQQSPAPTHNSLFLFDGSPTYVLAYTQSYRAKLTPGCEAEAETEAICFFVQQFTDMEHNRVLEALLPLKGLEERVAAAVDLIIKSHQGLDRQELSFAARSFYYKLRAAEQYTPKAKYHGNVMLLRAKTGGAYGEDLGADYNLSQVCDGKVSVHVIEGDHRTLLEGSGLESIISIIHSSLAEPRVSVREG
SUMO-activating enzyme, sequence (Q9UBE0 whole entry): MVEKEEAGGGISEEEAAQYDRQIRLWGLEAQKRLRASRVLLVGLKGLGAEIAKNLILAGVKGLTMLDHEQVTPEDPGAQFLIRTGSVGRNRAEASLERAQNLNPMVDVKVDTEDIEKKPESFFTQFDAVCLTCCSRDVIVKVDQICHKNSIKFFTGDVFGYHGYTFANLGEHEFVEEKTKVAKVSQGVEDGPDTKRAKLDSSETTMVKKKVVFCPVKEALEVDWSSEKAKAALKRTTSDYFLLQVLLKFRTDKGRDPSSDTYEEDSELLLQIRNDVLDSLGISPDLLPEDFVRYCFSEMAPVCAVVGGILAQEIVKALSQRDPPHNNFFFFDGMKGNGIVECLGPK
SUMO-activating enzyme, sequence (Q9UBT2 whole entry): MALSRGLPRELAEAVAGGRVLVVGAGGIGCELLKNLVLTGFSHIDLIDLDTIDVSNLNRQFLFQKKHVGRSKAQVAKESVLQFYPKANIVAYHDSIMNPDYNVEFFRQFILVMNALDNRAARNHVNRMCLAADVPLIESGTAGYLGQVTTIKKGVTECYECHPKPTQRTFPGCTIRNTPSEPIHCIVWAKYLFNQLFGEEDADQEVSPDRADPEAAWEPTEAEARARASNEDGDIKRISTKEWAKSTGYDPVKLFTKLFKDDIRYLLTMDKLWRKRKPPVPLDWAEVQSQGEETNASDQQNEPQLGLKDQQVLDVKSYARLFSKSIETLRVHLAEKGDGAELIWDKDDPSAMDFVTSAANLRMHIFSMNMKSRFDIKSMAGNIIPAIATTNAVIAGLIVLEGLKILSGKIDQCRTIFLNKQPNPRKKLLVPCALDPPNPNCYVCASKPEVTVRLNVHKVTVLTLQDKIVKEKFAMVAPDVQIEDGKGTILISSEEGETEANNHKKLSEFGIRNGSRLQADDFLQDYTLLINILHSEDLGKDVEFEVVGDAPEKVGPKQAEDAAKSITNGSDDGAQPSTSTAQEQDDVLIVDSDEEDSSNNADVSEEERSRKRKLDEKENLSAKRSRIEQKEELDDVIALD

In the case of CCCC(=O)NC(c1ccc(C(C)C)cc1)c1ccc2cccnc2c1O (centres undefined), the AC50 [1] was 0.47 µM (active).
With N#Cc1c(N2CCCCC2)nc(N)c2c(N)nc(SCC(=O)O)cc12 the IC50 [2] was 0.86 µM (active), the IC50 [3] was 33.7 µM (active) and the IC50 [4] was > 7.45 µM (active).
In the case of Oc1c(Cl)cc(Cl)c(Cl)c1Cc1c(O)c(Cl)cc(Cl)c1Cl [HEXACHLOROPHENE], the IC50 [5] was 0.032 µM (active), the IC50 [6] was 27.4 µM (active) and the IC50 [7] was 7.79 µM (active). For the same compound, the IC50 [8] was 15.8 µM (active).
For CC1(C)Cc2ccccc2C2=NNC(=O)C2=N1, the IC50 [9] was 14 µM (active).

Source: ChEMBL document CHEMBL1201862, “PubChem BioAssay data set” (2004)
